Experimental data published in ChEMBL document CHEMBL3885881, “DrugMatrix”.

Organism: Rattus norvegicus
Assay: DrugMatrix - Regimen: Daily Repeat
Assay type: toxicity, organism-based, Sprague-Dawley
Set-up: regimen Daily Repeat, gender Male, age 6-8 weeks
Conditions: in vivo, po, 72 h, route oral GAVAGE, time 3 day, vehicle .5 % CMC; for ABSOLUTE BASOPHIL / ABSOLUTE EOSINOPHIL / ABSOLUTE LYMPHOCYTE / ABSOLUTE MONOCYTE / ABSOLUTE SEGMENTED NEUTROPHIL / BASOPHIL / EOSINOPHIL / ERYTHROCYTE COUNT / HEMATOCRIT / HEMOGLOBIN / LEUKOCYTE COUNT / LYMPHOCYTE / MEAN CORPUSCULAR HEMOGLOBIN / MEAN CORPUSCULAR HEMOGLOBIN CONCENTRATION / MEAN CORPUSCULAR VOLUME / MONOCYTE / NEUTROPHIL / NUCLEATED RED BLOOD CELLS / PLATELET COUNT: tissue Blood; for ALANINE AMINOTRANSFERASE / ALBUMIN / ALKALINE PHOSPHATASE / ASPARTATE AMINOTRANSFERASE / BLOOD UREA NITROGEN / CARBON DIOXIDE / CHLORIDE / CHOLESTEROL / CREATINE PHOSPHOKINASE / CREATININE / GLUCOSE / LACTATE DEHYDROGENASE / LIPASE / PHOSPHORUS / POTASSIUM / SODIUM / TOTAL BILIRUBIN / TOTAL PROTEIN / URIC ACID: tissue Plasma

`C=C1CC[C@H](O)C/C1=C/C=C1\CCC[C@]2(C)[C@@H]([C@H](C)/C=C/[C@H](C)C(C)C)CC[C@@H]12` [ERGOCALCIFEROL] was tested, and the “ABSOLUTE BASOPHIL” value (0 mg/kg, dose level Control) was 0 CELLS/uL, the “ABSOLUTE EOSINOPHIL” value (0 mg/kg, dose level Control) was 8.83 CELLS/uL and the “ABSOLUTE LYMPHOCYTE” value (0 mg/kg, dose level Control) was 7222.33 CELLS/uL. The “ABSOLUTE MONOCYTE” value (0 mg/kg, dose level Control) was 0 CELLS/uL, the “ABSOLUTE SEGMENTED NEUTROPHIL” value (0 mg/kg, dose level Control) was 752.17 CELLS/uL and the BASOPHIL (0 mg/kg, dose level Control) was 0%. For the same compound, the EOSINOPHIL (0 mg/kg, dose level Control) was 0.17%, the “ERYTHROCYTE COUNT” value (0 mg/kg, dose level Control) was 5.22 x10E6/uL and the HEMATOCRIT (0 mg/kg, dose level Control) was 32.6%. The HEMOGLOBIN (0 mg/kg, dose level Control) was 12.43 G/DL, the “LEUKOCYTE COUNT” value (0 mg/kg, dose level Control) was 7.98 x10E3/uL and the LYMPHOCYTE (0 mg/kg, dose level Control) was 91.17%. The “MEAN CORPUSCULAR HEMOGLOBIN” value (0 mg/kg, dose level Control) was 23.87 pg, the “MEAN CORPUSCULAR HEMOGLOBIN CONCENTRATION” value (0 mg/kg, dose level Control) was 38.18 G/DL and the “MEAN CORPUSCULAR VOLUME” value (0 mg/kg, dose level Control) was 62.48 fL. The MONOCYTE (0 mg/kg, dose level Control) was 0%, the NEUTROPHIL (0 mg/kg, dose level Control) was 8.67% and the “NUCLEATED RED BLOOD CELLS” value (0 mg/kg, dose level Control) was 0 /100WBC. For the same compound, the “PLATELET COUNT” value (0 mg/kg, dose level Control) was 1082.33 x10E3/uL, the “ALANINE AMINOTRANSFERASE” value (0 mg/kg, dose level Control) was 42.17 u/L and the ALBUMIN (0 mg/kg, dose level Control) was 4.33 G/DL. For the same compound, the “ALKALINE PHOSPHATASE” value (0 mg/kg, dose level Control) was 451.17 u/L, the “ASPARTATE AMINOTRANSFERASE” value (0 mg/kg, dose level Control) was 76.17 u/L and the “BLOOD UREA NITROGEN” value (0 mg/kg, dose level Control) was 13.33 mg/dL. For the same compound, the “CARBON DIOXIDE” value (0 mg/kg, dose level Control) was 31.67 mmol/L, the CHLORIDE (0 mg/kg, dose level Control) was 96.5 MEQ/L and the CHOLESTEROL (0 mg/kg, dose level Control) was 78 mg/dL. For the same compound, the “CREATINE PHOSPHOKINASE” value (0 mg/kg, dose level Control) was 216.5 u/L, the CREATININE (0 mg/kg, dose level Control) was 0.22 mg/dL and the GLUCOSE (0 mg/kg, dose level Control) was 137 mg/dL. For the same compound, the “LACTATE DEHYDROGENASE” value (0 mg/kg, dose level Control) was 138.5 u/L, the LIPASE (0 mg/kg, dose level Control) was 8.67 u/L and the PHOSPHORUS (0 mg/kg, dose level Control) was 12.68 mg/dL. For the same compound, the POTASSIUM (0 mg/kg, dose level Control) was 6.23 MEQ/L, the SODIUM (0 mg/kg, dose level Control) was 143.47 MEQ/L and the “TOTAL BILIRUBIN” value (0 mg/kg, dose level Control) was 0.15 mg/dL. For the same compound, the “TOTAL PROTEIN” value (0 mg/kg, dose level Control) was 6.33 G/DL, the “URIC ACID” value (0 mg/kg, dose level Control) was 1.1 mg/dL and the “ABSOLUTE BASOPHIL” value (1 mg/kg, dose level Low) was 0 CELLS/uL. For the same compound, the “ABSOLUTE EOSINOPHIL” value (1 mg/kg, dose level Low) was 30.67 CELLS/uL, the “ABSOLUTE LYMPHOCYTE” value (1 mg/kg, dose level Low) was 8277.33 CELLS/uL and the “ABSOLUTE MONOCYTE” value (1 mg/kg, dose level Low) was 0 CELLS/uL. The “ABSOLUTE SEGMENTED NEUTROPHIL” value (1 mg/kg, dose level Low) was 658.67 CELLS/uL, the BASOPHIL (1 mg/kg, dose level Low) was 0% and the EOSINOPHIL (1 mg/kg, dose level Low) was 0.33%. For the same compound, the “ERYTHROCYTE COUNT” value (1 mg/kg, dose level Low) was 5.18 x10E6/uL, the HEMATOCRIT (1 mg/kg, dose level Low) was 32.07% and the HEMOGLOBIN (1 mg/kg, dose level Low) was 12.3 G/DL. For the same compound, the “LEUKOCYTE COUNT” value (1 mg/kg, dose level Low) was 8.97 x10E3/uL, the LYMPHOCYTE (1 mg/kg, dose level Low) was 92.33% and the “MEAN CORPUSCULAR HEMOGLOBIN” value (1 mg/kg, dose level Low) was 23.7 pg. The “MEAN CORPUSCULAR HEMOGLOBIN CONCENTRATION” value (1 mg/kg, dose level Low) was 38.37 G/DL, the “MEAN CORPUSCULAR VOLUME” value (1 mg/kg, dose level Low) was 61.9 fL and the MONOCYTE (1 mg/kg, dose level Low) was 0%. For the same compound, the NEUTROPHIL (1 mg/kg, dose level Low) was 7.33%, the “NUCLEATED RED BLOOD CELLS” value (1 mg/kg, dose level Low) was 0.33 /100WBC and the “PLATELET COUNT” value (1 mg/kg, dose level Low) was 1019.33 x10E3/uL. The “ALANINE AMINOTRANSFERASE” value (1 mg/kg, dose level Low) was 47 u/L, the ALBUMIN (1 mg/kg, dose level Low) was 4.37 G/DL and the “ALKALINE PHOSPHATASE” value (1 mg/kg, dose level Low) was 374.33 u/L. For the same compound, the “ASPARTATE AMINOTRANSFERASE” value (1 mg/kg, dose level Low) was 77.33 u/L, the “BLOOD UREA NITROGEN” value (1 mg/kg, dose level Low) was 13.33 mg/dL and the “CARBON DIOXIDE” value (1 mg/kg, dose level Low) was 31 mmol/L. The CHLORIDE (1 mg/kg, dose level Low) was 97.33 MEQ/L, the CHOLESTEROL (1 mg/kg, dose level Low) was 71.67 mg/dL and the “CREATINE PHOSPHOKINASE” value (1 mg/kg, dose level Low) was 205 u/L. For the same compound, the CREATININE (1 mg/kg, dose level Low) was 0.28 mg/dL, the GLUCOSE (1 mg/kg, dose level Low) was 142 mg/dL and the “LACTATE DEHYDROGENASE” value (1 mg/kg, dose level Low) was 139.33 u/L. For the same compound, the LIPASE (1 mg/kg, dose level Low) was 8 u/L, the PHOSPHORUS (1 mg/kg, dose level Low) was 13.07 mg/dL and the POTASSIUM (1 mg/kg, dose level Low) was 6.56 MEQ/L. The SODIUM (1 mg/kg, dose level Low) was 144.27 MEQ/L, the “TOTAL BILIRUBIN” value (1 mg/kg, dose level Low) was 0.17 mg/dL and the “TOTAL PROTEIN” value (1 mg/kg, dose level Low) was 6.43 G/DL. The “URIC ACID” value (1 mg/kg, dose level Low) was 1.17 mg/dL, the “ABSOLUTE BASOPHIL” value (15 mg/kg, dose level High) was 0 CELLS/uL and the “ABSOLUTE EOSINOPHIL” value (15 mg/kg, dose level High) was 0 CELLS/uL. For the same compound, the “ABSOLUTE LYMPHOCYTE” value (15 mg/kg, dose level High) was 7628 CELLS/uL, the “ABSOLUTE MONOCYTE” value (15 mg/kg, dose level High) was 40.67 CELLS/uL and the “ABSOLUTE SEGMENTED NEUTROPHIL” value (15 mg/kg, dose level High) was 1198 CELLS/uL. For the same compound, the BASOPHIL (15 mg/kg, dose level High) was 0%, the EOSINOPHIL (15 mg/kg, dose level High) was 0% and the “ERYTHROCYTE COUNT” value (15 mg/kg, dose level High) was 5.54 x10E6/uL. For the same compound, the HEMATOCRIT (15 mg/kg, dose level High) was 34.3%, the HEMOGLOBIN (15 mg/kg, dose level High) was 13.2 G/DL and the “LEUKOCYTE COUNT” value (15 mg/kg, dose level High) was 8.87 x10E3/uL. The LYMPHOCYTE (15 mg/kg, dose level High) was 86.67%, the “MEAN CORPUSCULAR HEMOGLOBIN” value (15 mg/kg, dose level High) was 23.83 pg and the “MEAN CORPUSCULAR HEMOGLOBIN CONCENTRATION” value (15 mg/kg, dose level High) was 38.5 G/DL. For the same compound, the “MEAN CORPUSCULAR VOLUME” value (15 mg/kg, dose level High) was 61.97 fL, the MONOCYTE (15 mg/kg, dose level High) was 0.33% and the NEUTROPHIL (15 mg/kg, dose level High) was 13%. The “NUCLEATED RED BLOOD CELLS” value (15 mg/kg, dose level High) was 0.33 /100WBC, the “PLATELET COUNT” value (15 mg/kg, dose level High) was 1196.67 x10E3/uL and the “ALANINE AMINOTRANSFERASE” value (15 mg/kg, dose level High) was 55 u/L. For the same compound, the ALBUMIN (15 mg/kg, dose level High) was 4.43 G/DL, the “ALKALINE PHOSPHATASE” value (15 mg/kg, dose level High) was 367.33 u/L and the “ASPARTATE AMINOTRANSFERASE” value (15 mg/kg, dose level High) was 84 u/L. The “BLOOD UREA NITROGEN” value (15 mg/kg, dose level High) was 14.33 mg/dL, the “CARBON DIOXIDE” value (15 mg/kg, dose level High) was 31.67 mmol/L and the CHLORIDE (15 mg/kg, dose level High) was 93.33 MEQ/L. For the same compound, the CHOLESTEROL (15 mg/kg, dose level High) was 74.33 mg/dL, the “CREATINE PHOSPHOKINASE” value (15 mg/kg, dose level High) was 211.67 u/L and the CREATININE (15 mg/kg, dose level High) was 0.24 mg/dL. For the same compound, the GLUCOSE (15 mg/kg, dose level High) was 139.33 mg/dL, the “LACTATE DEHYDROGENASE” value (15 mg/kg, dose level High) was 153 u/L and the LIPASE (15 mg/kg, dose level High) was 8.33 u/L. It also gave a PHOSPHORUS (15 mg/kg, dose level High) of 13.23 mg/dL, a POTASSIUM (15 mg/kg, dose level High) of 6.15 MEQ/L and an SODIUM (15 mg/kg, dose level High) of 144.7 MEQ/L. The “TOTAL BILIRUBIN” value (15 mg/kg, dose level High) was 0.1 mg/dL, the “TOTAL PROTEIN” value (15 mg/kg, dose level High) was 6.63 G/DL and the “URIC ACID” value (15 mg/kg, dose level High) was 1.43 mg/dL.
